US12522602B2, “Derivatives having 2,3-dihydro-1H-indene or 2,3-dihydrobenzofuran moiety or pharmaceutically acceptable salt thereof and pharmaceutical compositions comprising the same” (YUHAN CORPORATION, priority 2019, dated 2026)

The molecules below were run on GM1 production in Jurkat cells (assay: cells). Conditions: Homo sapiens, Jurkat, 72 h.
Type: cell-based

Compared with CC1(C)Cc2cc(-c3ccc(F)c(F)c3)ccc2C1NC(=O)O[C@@H]1CN2CCC1CC2 (stereo partly drawn) [Example 87, (S)-quinuclidin-3-yl (5-(3,4-difluorophenyl)-2,2-dimethyl-2,3-dihydro-1H-inden-1-yl)carbamate], CC1(C)Cc2cc(-c3cc(F)ccc3F)ccc2C1NC(=O)O[C@@H]1CN2CCC1CC2 (stereo partly drawn) [Example 88, (S)-quinuclidin-3-yl (5-(2,5-difluorophenyl)-2,2-dimethyl-2,3-dihydro-1H-inden-1-yl)carbamate] is 3.9-fold lower in IC50: 0.0428 µM for the first, 0.0111 µM for the second.

First: CC1(C)Cc2cc(-c3ccc(F)cc3F)ccc2C1NC(=O)O[C@@H]1CN2CCC1CC2 (stereo partly drawn) [Example 89, (S)-quinuclidin-3-yl (5-(2,4-difluorophenyl)-2,2-dimethyl-2,3-dihydro-1H-inden-1-yl)carbamate]
Second: CC1(C)Cc2cc(-c3cccc(F)c3F)ccc2C1NC(=O)O[C@@H]1CN2CCC1CC2 (stereo partly drawn) [Example 91, (S)-quinuclidin-3-yl (5-(2,3-difluorophenyl)-2,2-dimethyl-2,3-dihydro-1H-inden-1-yl)carbamate]
The IC50 of the first is 2-fold higher: 0.05 µM for the first, 0.0251 µM for the second.

Going from CC1(C)Cc2cc(-c3cc(F)cc(F)c3)ccc2C1NC(=O)O[C@@H]1CN2CCC1CC2 (stereo partly drawn) [Example 90, (S)-quinuclidin-3-yl (5-(3,5-difluorophenyl)-2,2-dimethyl-2,3-dihydro-1H-inden-1-yl)carbamate] to CC1(C)Cc2cc(-c3cc(Cl)cc(Cl)c3)ccc2C1NC(=O)O[C@@H]1CN2CCC1CC2 (stereo partly drawn) [Example 94, (S)-quinuclidin-3-yl (5-(3,5-dichlorophenyl)-2,2-dimethyl-2,3-dihydro-1H-inden-1-yl)carbamate], the IC50 falls from 0.0379 µM to 0.0236 µM (1.6-fold).

Compared with CC1(C)Cc2cc(-c3ccc(Cl)c(Cl)c3)ccc2C1NC(=O)O[C@@H]1CN2CCC1CC2 (stereo partly drawn) [Example 92, (S)-quinuclidin-3-yl (5-(3,4-dichlorophenyl)-2,2-dimethyl-2,3-dihydro-1H-inden-1-yl)carbamate], CC1(C)Cc2cc(-c3cc(Cl)ccc3Cl)ccc2C1NC(=O)O[C@@H]1CN2CCC1CC2 (stereo partly drawn) [Example 93, (S)-quinuclidin-3-yl (5-(2,5-dichlorophenyl)-2,2-dimethyl-2,3-dihydro-1H-inden-1-yl)carbamate] is 4.2-fold lower in IC50: 0.0439 µM for the first, 0.0105 µM for the second. The second is the more potent here.

Going from CC1(C)Cc2cc(-c3ccc(F)c(F)c3F)ccc2C1NC(=O)O[C@@H]1CN2CCC1CC2 (stereo partly drawn) [Example 95, (S)-quinuclidin-3-yl (2,2-dimethyl-5-(2,3,4-trifluorophenyl)-2,3-dihydro-1H-inden-1-yl)carbamate] to CC1(C)Cc2cc(-c3cc(F)c(F)cc3F)ccc2C1NC(=O)O[C@@H]1CN2CCC1CC2 (stereo partly drawn) [Example 96, (S)-quinuclidin-3-yl (2,2-dimethyl-5-(2,4,5-trifluorophenyl)-2,3-dihydro-1H-inden-1-yl)carbamate], the IC50 falls from 0.0497 µM to 0.0162 µM (3.1-fold).

Compared with COCCOc1ccc(-c2ccc3c(c2)CC(C)(C)C3NC(=O)O[C@@H]2CN3CCC2CC3)cc1 (stereo partly drawn) [Example 97, (S)-quinuclidin-3-yl (5-(4-(2-methoxyethoxy)phenyl)-2,2-dimethyl-2,3-dihydro-1H-inden-1-yl)carbamate], COCOc1ccc(-c2ccc3c(c2)CC(C)(C)C3NC(=O)O[C@@H]2CN3CCC2CC3)cc1 (stereo partly drawn) [Example 100, (S)-quinuclidin-3-yl (5-(4-(methoxymethoxy)phenyl)-2,2-dimethyl-2,3-dihydro-1H-inden-1-yl)carbamate] is 2.3-fold higher in IC50: 0.0093 µM for the first, 0.0215 µM for the second.

Compared with COCCOc1cccc(-c2ccc3c(c2)CC(C)(C)C3NC(=O)O[C@@H]2CN3CCC2CC3)c1 (stereo partly drawn) [Example 98, (S)-quinuclidin-3-yl (5-(3-(2-methoxyethoxy)phenyl)-2,2-dimethyl-2,3-dihydro-1H-inden-1-yl)carbamate], COCCOc1ccccc1-c1ccc2c(c1)CC(C)(C)C2NC(=O)O[C@@H]1CN2CCC1CC2 (stereo partly drawn) [Example 99, (S)-quinuclidin-3-yl (5-(2-(2-methoxyethoxy)phenyl)-2,2-dimethyl-2,3-dihydro-1H-inden-1-yl)carbamate] is 3-fold higher in IC50: 0.0075 µM for the first, 0.0222 µM for the second. The first is the more potent here.
